Data set [1] concerns 14-d-old rat pups. Put plainly: Morphometry of mature enterocytes along villi, Creon with drug pre-treatment, Example 2. It is filed as in vivo. As to conditions: for Mature epithelium: drug 0.01 mg/g b.wt per day, then water (no Creon). As to the method:
(§1) In both of the following experiments 14-d-old pups were weighed and divided into groups and further to subgroups depending on the aim of each experiment. Pups were fed intragastrically via a feeding tube (0.96 mm outer diameter, PE50, Becton Dickinson, Sparks, Md., USA), in a volume 0.01 mL/g b.wt. The dose(s) for each pup was repeated once daily in corresponding manner for three days (14, 15, 16-d-old).
(§2) At 17 days of age, all the pups were separated from their dams and then anesthetized by a subcutaneous injection of a mixture of Azaperone® (Stresnil; Janssen Pharmaceutica, Beerse, Belgium), 30 μg/g body weight (b.wt), and Ketamine® (Ketalar; Pfizer, New York, N.Y., USA), 170 μg/g b.wt. Once sure of anesthesia, the abdomen and thorax were then opened, euthanized via heart puncture. The small intestine was, after it was dissected out, length measured and then divided into two equally long proximal and distal parts, both of which were flashed with cold saline followed by a measurement of each one's weight. A 2 cm piece was collected from the midsection of the distal part and fixed in bouin's solution for 24 hr at room temperature for morphological changes measurements, while the rest parts of it were immediately frozen on dry ice and stored for functional analysis.
All the samples from the distal SI were embedded into paraffin, cut laterally into […] thick sections, deparaffinated, and stained with hematoxylin and eosin according to standard procedures. All the samples were then imaged by using an Olympus PROVIS microscope (objective ×10) utilizing an Olympus DP50 camera (Olympus, Tokyo, Japan). Morphomertic analysis by measuring the ratio of the length of the adult-like epithelium to whole villi length was done by using ImageJ 1.36 program (National Institute of Health, Bethesda, Md.). […]

Data set [2] deals with 14-d-old rat pups. Put plainly: Disaccharidase activity in distal intestinal homogenates, Creon with drug pre-treatment, Example 2. In kind it is in vivo. As to conditions: for Disaccharidase specific activity, Lactase / Disaccharidase specific activity, Maltase / Disaccharidase specific activity, Sucrase: drug alone, then water (no Creon), distal part. Here is the method: as §1, §2
The distal part of the small intestine was homogenized in cold 0.9% NaCl (1:10 w/v). Then, the disaccharidase activities were measured by the Dahlqvist A method, by incubating the homogenates with the appropriate disaccharide for 1 h at 37° C., thereafter the liberated glucose was measured by using a glucose oxidase reagent (Sigma chemicals), as described in Dahlqvist, A, in 1984 (Assay of intestinal disaccharidases, Scand J Clin Lab Invest, 1984; 44: 169-172).
The protein contents were determined by the method of Lowry et al (Lowry O H, Rosebrough N J, Farr A L & Randall R J Protein measurement with the Folin phenol reagent, J Biol Chem; 1951:193, 265-275.), modified for 96-well microplates as described in Pierzynowsk et al (Pierzynowsk S G, Westrom B R, Svendsen J & Karlsson B W. Development of exocrine pancreas function in chronically cannulated pigs during 1-13 weeks of postnatal life. J Pediatr Gastroenterol Nutr 1990; 10:206-212), and using serial dilutions of BSA (Sigma chemicals) as a standard.
(§3) The 2nd exp. includes four litters; all pups (n=36) were randomly divided into two groups (Creon: 150 mg of capsule (lipase 10 000 USP, potease 37 500 USP, amylase 33 200 USP and water), the dose of Creon was 1.5 mg/g b.wt), then each group divided into subgroup pretreated one hour prior to enzyme feeding with anti-inflammatory drugs, Ibuprofen or Celecoxib (celecoxib; Pfizer, New York, N.Y., USA) the dose of drugs was 0.01 mg/g b.wt per day for both, diluted to give volume 0.01 mL/g b.wt. Thus six groups were obtained water/water, Ibupofen/water, Celecoxib/water, water/Creon, Ibuprofen/Creon and Celecoxib/Creon.

The conditions of data set [3]: cited from earlier work.
The subject of data set [4] is 14-d-old rat pups. Description: Small intestine length and weight, Creon with anti-inflammatory drug pre-treatment, Example 2. In kind it is in vivo. The settings on record: for Small intestine Distal wt / Small intestine Length / Small intestine Proximal wt: drug 0.01 mg/g b.wt per day, then water (no Creon). As to the method: as §1, §2
In order to compensate for individual variations in BW, the organ measurements are presented per g BW. All data are presented as mean values and standard deviations. Statistical comparisons between all groups were carried out using a one-way ANOVA analysis (SigmaStat 2.0; Jandel Scientific, San Rafael, Calif., USA) with all pairwise multiple-comparison procedures (Student Newman-Keuls method). Differences were considered to be significant when P<0.05.
as §3

Data set [5] deals with suckling rats. Put plainly: Set I: intestinal morphology of distal SI, Example 3. The settings on record: distal part of SI, day 17. It is filed as in vivo, Rattus norvegicus. Here is the method: All samples collected for histology were fixed with Bouin's solution for 24 hours and then stored in 70% ethanol, dehydrated, embedded into the paraffin and then cut into sections with 5 μm thickness. The tissue sections were transferred onto the slides, rehydrated and stained with H&E according to the standard technique. After mounting under cover slips samples were examined using light microscopy to estimate ratio between total length of the villus and length of the adult type enterocytes using ImageJ program.

In data set [6] the test system is suckling rats. Put plainly: Set I: brush-border disaccharidase activity in proximal SI, Example 3. In kind it is in vivo, Rattus norvegicus. The settings on record: proximal part of SI, in words (FIG. 5). As to the method: The proximal samples of the SI were de-frozen and weighted and then homogenized with 9 parts of 0.9% NaCl (9 w/v). The homogenates (50 μl diluted samples) were incubated with the appropriate disaccharide (50 μl of 0.056M sucrose, maltose and lactose) for 1 hour at 37° C. After this, the liberated glucose was determined by adding glucose oxidase reagent (Sigma Chemicals), and incubated for 30 minutes. Then samples were transferred into the 96-well plate in triplication and the absorbance was measured at 450 nm. To measure the protein contents of the homogenates, Lowry method, was used, where BSA (Bovine Serum Albumin) was used as a standard. The results are presented as specific activity units per mg of protein (u/mg).

Data set [7] concerns suckling rats. Put plainly: Set I: plasma concentration of marker molecules BSA and BIgG (macromolecule absorption), Example 3. In kind it is in vivo, Rattus norvegicus. As to conditions: 3 hours after marker feeding, day 17, in words (FIG. 6). The source says: The plasma level of marker molecules was quantified by using immunoassay rocket electrophoresis and SRI (single radial immunodiffusion) for plasma BSA and BIgG respectively.

Data set [8] concerns suckling rats. Put plainly: Set I: body weight, GI and lymphoid organ weights, stomach pH after individual enzymes or mixture, Example 3. The settings on record: day 17; for Body weight / Cecum / Distal SI / Liver / Pancreas / Proximal SI / SI length / Spleen / Stomach / Thymus: 3 days treatment; for pH: stomach contents.
Protocol: All experiments were performed in young suckling rats by feeding them from 14 days of age via stomach tube for 3 continuous days (ones a day). One day after last treatment rats were euthanized and plasma and organs proceeded to study structural and functional changes of gastrointestinal system.
The pups were kept with their dam until dissection day (day 17).
In this set suckling pups were divided into five groups; control (water) amylase 10 000 USP/rat/day, lipase 4 000 USP/rat/day, protease 15 000 USP/rat/day, and mixture of these enzyme with corresponding activities per rat and day. This study was evaluating the effects of different pancreatic-like enzymes on the gut maturation and functioning and had 3 individual litters; n=12, n=10 and n=13, totally n=7 pups per each group. Each of the enzymes (Amylase, Protease and Lipase) (Sigma Aldrich) was available in the powder form and was resolved in distilled water prior to stomach feeding during days 14, 15 and 16. The volume of administered enzymes and distilled water (for control groups) was 0.01 ml/g BW. Each time, prior to the feeding procedure, the pups were weighed. […] Then 3 hours later, the pups were sedated with CO2 and anaesthetized by subcutaneous injection with a mixture of ketamine (Ketalar®, Pfizer, New York, USA, NaCl and azaperone (Stresnil®, Janssen Pharmaceutica, Beerse, Belgium), 0.01 ml/g BW. After opening the abdomen of the rats, 1 ml of blood was collected from heart by using syringes containing protease inhibitor and EDTA (50 μl) as anticoagulant and was transferred into ice-chilled tubes. After this, the pancreas was immediately dissected and rinsed with cold 0.9% NaCl, weighted and stored at −70 C. The SI was removed and its length was measured then divided into two halves, proximal and distal. Each segment was flushed out with cold 0.9% NaCl to clean the lumen and was then weighed separately. […] The stomach was removed and its content was collected into the tube (for measuring its pH) and frozen. Then cecum was dissected out, opened, rinse and weighed as well as liver and lymphoid organs spleen and thymus were dissected and weighted.
The contents of the stomach were de-frozen and then resolved with 1 ml of cold 0.9% NaCl. After resolving, they were centrifuged and the pH was measured in the supernatant using pH-meter.
All data are presented as mean±standard deviation (SD). Statistical comparisons between each group and control group were performed using the t-test. Results were considered as significant when P<0.05.
Data set [9] concerns young rats. Description: Growth of young rats treated with microbial amylase or lipase, Example 7. In kind it is in vivo. As to conditions: 10 000 USP for amylase/rat, days 14-16, in words (FIG. 11). Here is the method:
This study was done to consider the effect of separated enzymes on body growth. The experiment is completing study done earlier to investigate effects of protease on body growth and was performed in similar mode (see experiment 3-5 above).
Suckling pups were divided into 3 groups depending on the treatment; amylase, lipase and water (n=7 per group). The enzymes are available in the market in form of powders and were resolved in distilled water prior to stomach feeding during 14-16 d of age, ones a day. The administered dose for each single enzyme feeding was 4 000 USP for lipase/rat and 10 000 USP for amylase/rat. The control group received vehicle.

Setting [10] is: drug one hour prior to Creon, in words.

With `Cc1ccc(-c2cc(C(F)(F)F)nn2-c2ccc(S(N)(=O)=O)cc2)cc1` [Celexosib, Celecoxib], the Mature epithelium in [1] is 7.98^A %. In addition, in data set [2], the “Disaccharidase specific activity, Lactase” value stood at 100.91 U/mg; the “Disaccharidase specific activity, Maltase” value was 72.24 ^A U/mg; the “Disaccharidase specific activity, Sucrase” value was 1.28 ^A U/mg. For the same compound, in data set [3], the half life is 12 h. In data set [4], the “Small intestine Distal wt” value is on record as 14.45 ^A mg/g bwt, the “Small intestine Length” value was found to be 1.64 cm/g bwt and the “Small intestine Proximal wt” value is recorded as 16.32 ^A mg/g bwt.

Regarding `CC(C)Cc1ccc(C(C)C(=O)O)cc1` (centres unmarked) [Ibuprofen], the Mature epithelium in data set [1] is 8.78^A %. For the same compound, the “effect of drug pre-treatment on mature cells (morphometric analysis) under Creon” value in [1] (setting [10]) is given as “unaffected”. Further, in data set [2], the “Disaccharidase specific activity, Lactase” value was determined as 114.17 U/mg; the “Disaccharidase specific activity, Maltase” value was 82.75 ^A U/mg; the “Disaccharidase specific activity, Sucrase” value is listed as 1.12 ^A U/mg. Moreover, the “effect of drug pre-treatment on disaccharidases activities under Creon” value in [2] (setting [10]) is recorded as “unaffected”. Also, in data set [4], the “Small intestine Distal wt” value was 13.81 ^A mg/g bwt, the “Small intestine Length” value was determined as 1.60 cm/g bwt and the “Small intestine Proximal wt” value is reported as 16.24 ^A mg/g bwt. In addition, the “effect of drug pre-treatment on the effect of Creon on intestinal weight and length” value in [4] (setting [10]) was “could not be cancelled”.

Consider Lipase from B. cepacia, for which the “foetal-type epithelium with vacuolated enterocytes along the villi” value in data set [5] is recorded as 77%. Further, in data set [6], the lactase activity result is on record as “higher”, the maltase activity result was “stayed in a lower level” and the sucrase activity result is listed as “stayed in a lower level”. Also, in [7], the “uptake of marker molecule BIgG to plasma” value is “remained in a higher level” and the “uptake of marker molecule BSA to plasma” value is reported as “remained in a higher level”. In [8], the Body weight was 36.8 ± 2.2 gr, the Cecum worked out at 2.4 ± 0.4 mg/g BW, the “Distal SI” value is 15.2 ± 0.9 mg/g BW and the Liver is reported as 34.5 ± 1.8 mg/g BW. In addition, in data set [8], the Pancreas is 3.7 ± 0.5 mg/g BW, the “Proximal SI” value worked out at 17.5 ± 1.7 mg/g BW, the SI length is on record as 1.5 ± 0.1 cm/g BW and the Spleen is listed as 3.5 ± 0.4 mg/g BW. In addition, in data set [8], the Stomach worked out at 6.9 ± 0.8 mg/g BW, the Thymus came out at 4.9 ± 0.8 mg/g BW and the pH came to 4.0 ± 0.3.

Consider α-Amylase from Aspergillus oryzae, for which the “foetal-type epithelium with vacuolated enterocytes along the villi” value in [5] stood at 77%. Moreover, in [6], the lactase activity entry is “higher”, the maltase activity result is reported as “stayed in a lower level” and the sucrase activity entry is “stayed in a lower level”. Besides, in [7], the “uptake of marker molecule BIgG to plasma” value is “remained in a higher level” and the “uptake of marker molecule BSA to plasma” value is on record as “remained in a higher level”. In addition, in data set [8], the Body weight came to 37.2 ± 2.3 gr, the Cecum is 2.5 ± 0.3 mg/g BW, the “Distal SI” value was found to be 15.2 ± 2.3 mg/g BW and the Liver is listed as 33.7 ± 1.3 mg/g BW. Also, in data set [8], the Pancreas is reported as 3.5 ± 0.4 mg/g BW, the “Proximal SI” value was determined as 16.6 ± 1.9 mg/g BW, the SI length was determined as 1.5 ± 0.0 cm/g BW and the Spleen is 3.6 ± 0.7 mg/g BW. For the same compound, in data set [8], the Stomach was found to be 6.8 ± 0.4 mg/g BW, the Thymus is reported as 5.1 ± 0.2 mg/g BW and the pH was found to be 4.0 ± 0.2. In addition, in data set [9], the “growth of young rats in comparison to lipase and control group” value is given as “clear effect of amylase to stimulate growth”.

The values above are taken from US9205137B2, “Maturation of gastrointestinal tract” (ANARA AB, priority 2010, dated 2015).
